Consider two compounds from patent US20220024872A1, “ISOLATION AND CHARACTERIZATION OF ANTICANCER COMPOUND FROM SESUVIUM PORTULACASTRUM (L.) L” (priority 2019, published 2022).

≈ marks a conversion by molar mass, not a printed value. Where “and” joins values, the source holds several entries; their conditions need not be identical. Identical values can stand only once.

For data set [1], the system named is human colon cancer cells (HCT-116). Put plainly: MTT cell proliferation assay, HCT-116. The format is cell-based. Here is the method:
(§1) Anticancer activity of crude extracts were evaluated against four cell lines, human triple negative breast cancer cells (MDA-MB-231), estrogen positive breast cancer cells (MCF-7), human neuroblastoma cells (IMR-32) and human colon cancer cells (HCT-116) that were procured from NCCS-Pune using 3-(4,5-Dimethylthiazol-2-Yl)-2,5-Diphenyltetrazolium Bromide (MTT) assay.
(§2) In vitro cytotoxic activity of all the extracts was determined by MTT assay as described by Manikandan et al. (2017) with slight modification. After trypsinization, viable cells were counted by trypan blue exclusion in a hemocytometer and diluted with the medium.
(§3) The cells were seeded in 96 well plate at a density of 1-2×10^4 cells per well. The plate was incubated at 37° C. in a 5% CO2 atmosphere. The following day media was removed and the cells were treated with standard, doxorubicin (0.1-4 μg/ml) or plant extract at different concentrations (100-500 μg/ml). The extract was initially dissolved in 1:1 ratio of ethanol-ethyl acetate mixture and further diluted in medium to get the required concentrations. As plant extracts were dissolved in ethyl acetate and as ethyl acetate is not miscible with cell culture media, a mixture of ethanol-ethyl acetate in a ratio of 1:1 is used for all the cell culture experiments. The final mixture used for treating the cells contained not more than 0.5% of the ethanol-ethyl acetate mixture. Negative controls were treated with the same percentage of ethanol-ethyl acetate mixture.
(§4) The treated plate was incubated at 37° C. in a humidified incubator with 5% CO2 for 24 h. After the incubation period, the media was removed, 100 μl of 0.1 mg/ml MTT reagent was added and incubated at 37° C. in a humidified incubator with 5% CO2 for 1 h till purple MTT formazan crystals were visible under the microscope. The formazan crystals were dissolved by adding 100 μl DMSO and spectrophotometric readings were taken at 540 nm.
(§5) The cytotoxic activity of standard or plant extract was calculated as the percentage of cell growth inhibition by using the following formula.
(§6) Where Acontrol indicates the absorbance of control containing 0.5% ethanol-ethyl acetate mixture. Asample is the absorbance of treated cells at different concentrations. IC50 values (the concentration of sample required for inhibition of 50% of cell growth) were obtained from the regression line.
(§7) The anticancer potential of the anticancer compound against MDA-MB-231, MCF-7, IMR-32 and HCT-116 cells was evaluated at different concentrations (40, 80, 120, 160 and 200 μg/ml) and different incubation times (24 h, 48 h, 72 h) using MTT assay by the method described above.
On the technique in general: Tetrazolium assays rely on reduction of a dye to a coloured formazan, in cell work by metabolically active cells.

The subject of a further data set is MDA-MB-231. Nature of the data set: Cell cycle progression, MDA-MB-231. Format: cell-based, human.
Data set [2] relates to estrogen positive breast cancer cells (MCF-7). Put plainly: MTT cell proliferation assay, MCF-7. The format is cell-based. The settings on record: Homo sapiens. Here is the method: as §1, §2, §3, §4, §5, §6, §7
The next data set has as its system MDA-MB-231 cells. Nature of the data set: Gene expression by PCR relative to β-actin, MDA-MB-231. Format: cell-based, human. The note with it: MDA-MB-231, 96 μg/ml, 72 h. As for the experimental part: (§8) FIG. 7. Detection of genes by PCR. Lane 1: MDA-MB-231 control cells; lane 2: MDA-MB-231 cells treated with anticancer compound (96 μg/ml) for 72 h; lane 3: IMR-32 control cells; lane 4: IMR-32 cells treated with anticancer compound (87 μg/ml) for 72 h; control cells are treated with 0.2% of ethanol-ethyl acetate mixture at 1:1 ratio.
(§9) Genetic level changes associated with the treatment of anticancer compound in MDA-MB-231 and IMR-32 cells were studied by isolating the RNA, reverse transcribing the RNA to cDNA, amplifying the genes using specific primers. The resulting bands were analyzed using image J and the expression of each gene was represented as relative gene expression using the β-actin gene as a control.

The test system of data set [3] is human peripheral blood lymphocytes. Put plainly: Trypan blue exclusion assay, lymphocyte viability. The format is cell-based. As for the experimental part: In order to know the side effects associated with the treatment of anticancer compound, the effect of the anticancer compound on the viability of human peripheral blood lymphocytes was determined using trypan blue exclusion assay. Along with the viability of lymphocytes, the viability of different cancer cells at that particular concentration and incubation time are shown in Table 6.

In data set [4] the test system is IMR-32 cells. Nature of the data set: Cell cycle progression, IMR-32. The format is cell-based, human.
Data set [5] relates to human triple negative breast cancer cells (MDA-MB-231). Nature of the data set: MTT cell proliferation assay, MDA-MB-231. Format: cell-based. Here is the method: as §1, §2, §3, §4, §5, §6
Further, the most polar band from all the fractions was combined and termed as fraction 29. All the compounds separated along with crude diethyl ether extract were analyzed for their anticancer potential against MDA-MB-231 cells at a concentration of 300 μg/ml using MTT assay as described above. Cytotoxic activity was expressed as percentage inhibition of cells at 300 μg/ml.
as §7

The subject of data set [6] is human neuroblastoma cells (IMR-32). Nature of the data set: MTT cell proliferation assay, IMR-32. The format is cell-based. Here is the method: as §1, §2, §3, §4, §5, §6, §7
Data set [7] concerns IMR-32 cells. Put plainly: Gene expression by PCR relative to β-actin, IMR-32. Format: cell-based, human. The note with it: IMR-32, 87 μg/ml, 72 h. As for the experimental part: as §8, §9
The test system of another data set is lymphocytes. The settings on record: 1 μg/ml, 24 h; cited from earlier work.

By viability is commonly meant a read-out of living cells in per cent, often relative to untreated cells. The IC50 is the point on the concentration scale where inhibition reaches its midpoint. A high value points to lower potency. What is called inhibition is the share of the control response that was lost under treatment. In the case of `Cc1cnc(-c2ccc(CCCCCCCC(C)C)cc2)c(C)c1C` [Compound 16, 3,4,5-trimethyl-2-(4-(8-methylnonyl)phenyl)pyridine], the viability at 300 µg/mL in data set [1] (HCT-116, 300 μg/ml, 72 h, read-out: Viability percentage HCT-116) was found to be 3.29 ± 3.15%; in [2] (MCF7, 300 μg/ml, 72 h, read-out: Viability percentage MCF-7), 0%; in data set [5] (MDA-MB-231, 300 μg/ml, 72 h, read-out: Viability percentage MDA-MB-231), 0%; in data set [6] (IMR-32, 300 μg/ml, 72 h, read-out: Viability percentage IMR-32), 0%. In addition, the viability at 350 µg/mL in [1] (HCT-116, 350 μg/ml, 48 h, read-out: Viability percentage HCT-116) came out at 0%; in data set [2] (MCF7, 350 μg/ml, 48 h, read-out: Viability percentage MCF-7), 0%; in data set [5] (MDA-MB-231, 350 μg/ml, 48 h, read-out: Viability percentage MDA-MB-231), 0%; in data set [6] (IMR-32, 350 μg/ml, 48 h, read-out: Viability percentage IMR-32) it was 0%. Moreover, the viability at 400 µg/mL amounted to 0% in data set [1] (HCT-116, 400 μg/ml, 24 h, read-out: Viability percentage HCT-116); 0% in data set [2] (MCF7, 400 μg/ml, 24 h, read-out: Viability percentage MCF-7); 0% in data set [5] (MDA-MB-231, 400 μg/ml, 24 h, read-out: Viability percentage MDA-MB-231); 0% in data set [6] (IMR-32, 400 μg/ml, 24 h, read-out: Viability percentage IMR-32). Besides, the IC50 in data set [1] (HCT-116, 24 h) was found to be 179 ± 6.12 µg/mL (≈ 531 µM); in data set [1] (HCT-116, 48 h) it was 162 ± 5.02 µg/mL (≈ 478 µM); in [1] (HCT-116, 72 h), 159 µg/mL (≈ 470 µM); in [2] (MCF7, 24 h) it was 243 µg/mL (≈ 719 µM); in [2] (MCF7, 48 h), 183 ± 6.29 µg/mL (≈ 543 µM); in data set [2] (MCF7, 72 h), 155 ± 5.24 µg/mL (≈ 458 µM). Also, the IC50 in data set [5] (MDA-MB-231, 24 h) was determined as 199.2 ± 0.5 µg/mL (≈ 590 µM); in data set [5] (MDA-MB-231, 48 h), 99.1 ± 1.6 µg/mL (≈ 294 µM); in data set [5] (MDA-MB-231, 72 h), 96.2 ± 1.75 µg/mL (≈ 285 µM); in [6] (IMR-32, 24 h), 224 ± 7.21 µg/mL (≈ 663 µM); in data set [6] (IMR-32, 48 h) it was 165.2 ± 0.87 µg/mL (≈ 489 µM); in [6] (IMR-32, 72 h), 87.8 µg/mL (≈ 260 µM). Also, the “phase at which cell cycle progression is inhibited” value with MDA-MB-231 is listed as “G2/M phase”; with IMR-32 cells [4], “G1 phase”. Also, the “Bcl-2 gene expression vs control” value is reported as “reduced expression levels” in the data set with MDA-MB-231 cells and “no change in the expression levels” in the data set with IMR-32 cells [7]. Moreover, the “IKK-β gene expression vs control” value in the data set on MDA-MB-231 cells is “almost similar in treated and control cells”; in the data set on IMR-32 cells [7], “downregulation”. For the same compound, the entries for the “Nrf2 gene expression vs control” value in the data set on MDA-MB-231 cells and in the data set with IMR-32 cells [7] were “downregulation” and “reduced expression level”, respectively. The “caspase-3 gene expression vs control” value with MDA-MB-231 cells and in the data set with IMR-32 cells [7] was “upregulation” in each case. In addition, the “p53 gene expression vs control” value in the data set on MDA-MB-231 cells and in the data set on IMR-32 cells [7] was “reduced” each time. Besides, the “Viability percentage Lymphocytes” value in data set [3] (300 μg/ml, 72 h, listed as anticancer compound) was 74.94% and 74.94 ± 1.50%; in [3] (350 μg/ml, 48 h), 82.11 ± 1.42%; in data set [3] (400 μg/ml, 24 h, listed as anticancer compound) it was 91.04% and 90.40 ± 4.02%. For the same compound, the inhibition at 300 µg/mL in [5] (MDA-MB-231 cells, 300 μg/ml, read-out: Percentage Inhibition) was 94.54 ± 0.59%.
`COc1cccc2c1C(=O)c1c(O)c3c(c(O)c1C2=O)C[C@@](O)(C(=O)CO)C[C@@H]3O[C@H]1C[C@H](N)[C@H](O)[C@H](C)O1` [Doxorubicin, doxorubicin, reference compound]: the IC50 in data set [1] (HCT-116, crude extracts 100-500 μg/ml, doxorubicin 0.1-4 μg/ml, 24 h) worked out at 0.4 µg/mL (≈ 0.736 µM); in data set [2] (MCF7, crude extracts 100-500 μg/ml, doxorubicin 0.1-4 μg/ml, 24 h), 0.66 ± 0.04 µg/mL (≈ 1.21 µM); in [5] (MDA-MB-231, crude extracts 100-500 μg/ml, doxorubicin 0.1-4 μg/ml, 24 h), 0.83 ± 0.03 µg/mL (≈ 1.53 µM); in data set [6] (IMR-32, crude extracts 100-500 μg/ml, doxorubicin 0.1-4 μg/ml, 24 h), 0.5 µg/mL (≈ 0.92 µM). Further, the lymphocyte viability in the data set with lymphocytes is recorded as 65%.
